# Experimental data reported in patent publication US4216324A, “1-Difluoromethyl-6,7-methylenedioxy-1,4-dihyd ro-4-oxo-3-quinolinecarboxylic acid” (E. I. Du Pont de Nemours and Company, priority 1978, dated 1980).
# Read-outs that look alike come from different tables or passages of the source.
# Assays:
# Aero. cloacae = test: In vitro minimum inhibitory concentration (MIC), tube dilution test; format: cell-based; conditions: Enterobacter cloacae; Aero. cloacae (39A); brain-heart infusion broth, 20hour incubation at 37° C.; read-out: Minimal Inhibitory Test Conens. (MIC)
# Procedure: (§1) A. In vitro: mimimum inhibitory concentration (MIC)
# (§2) The compound was tested in a standard bacteriological tube dilution test for MIC for a variety of bacteria. Stock cultures of the bacteria listed in Table 1 were grown in bacterial culture media at 37° C. overnight and diluted in culture tubes to a previously determined concentration proper for the test. The compound was added to result in final concentrations of 10, 2, 0.4 and 0.08 μg/ml. These were incubated for 18 hours at 37° C. and then observed to determine if growth of bacteria had occurred. The lowest concentration of the compound that inhibited bacterial growth in the MIC.
# (§3) *brain-heart infusion broth, 20hour incubation at 37° C.
# Bac. subtilis = test: as above; format: cell-based; conditions: Bacillus subtilis; Bac. subtilis (07A); brain-heart infusion broth, 20hour incubation at 37° C.; read-out: Minimal Inhibitory Test Conens. (MIC)
# Procedure: as §1, §2, §3
# E. coli = test: as above; format: cell-based; conditions: Escherichia coli, 20 h, brain-heart infusion broth, 20hour incubation at 37° C., read-out: Minimal Inhibitory Test Conens. (MIC)
# Procedure: as §1, §2, §3
# Kleb. aerobacter = test: as above; format: cell-based; conditions: Kleb. aerobacter (20F); brain-heart infusion broth, 20hour incubation at 37° C.; read-out: Minimal Inhibitory Test Conens. (MIC)
# Procedure: as §1, §2, §3
# Proteus sp. = test: as above; format: cell-based; conditions: brain-heart infusion broth, 20hour incubation at 37° C., read-out: Minimal Inhibitory Test Conens. (MIC)
# Procedure: as §1, §2, §3
# Proteus vulgaris = test: as above; format: cell-based; conditions: Proteus vulgaris (14P); brain-heart infusion broth, 20hour incubation at 37° C.; read-out: Minimal Inhibitory Test Conens. (MIC)
# Procedure: as §1, §2, §3
# Sal. choleraesuis = test: as above; format: cell-based; conditions: Salmonella enterica, 20 h, read-out: Minimal Inhibitory Test Conens. (MIC)
# Procedure: as §1, §2, §3
# Sal. gallinarum = test: as above; format: cell-based; conditions: Salmonella enterica, 20 h, brain-heart infusion broth, 20hour incubation at 37° C., read-out: Minimal Inhibitory Test Conens. (MIC)
# Procedure: as §1, §2, §3
# Sal. typhimurium = test: as above; format: cell-based; conditions: Salmonella enterica, 20 h, brain-heart infusion broth, 20hour incubation at 37° C., read-out: Minimal Inhibitory Test Conens. (MIC)
# Procedure: as §1, §2, §3
# Sal. typhi = test: as above; format: cell-based; conditions: brain-heart infusion broth, 20hour incubation at 37° C.
# Procedure: as §1, §2, §3
# Ser. marcescens = test: as above; format: cell-based; conditions: Serratia marcescens; Ser. marcescens (22); brain-heart infusion broth, 20hour incubation at 37° C.; read-out: Minimal Inhibitory Test Conens. (MIC)
# Procedure: as §1, §2, §3
# Shiq. dysenteriae = test: as above; format: cell-based; conditions: 20 h, read-out: Minimal Inhibitory Test Conens. (MIC)
# Procedure: as §1, §2, §3
# Staph. aureus = test: as above; format: cell-based; conditions: Staphylococcus aureus; Staph. aureus (08F); brain-heart infusion broth, 20hour incubation at 37° C.; read-out: Minimal Inhibitory Test Conens. (MIC)
# Procedure: as §1, §2, §3
# Strep. pyogenes = test: as above; format: cell-based; conditions: Streptococcus pyogenes; Strep. pyogenes (10V); brain-heart infusion broth, 20hour incubation at 37° C.; read-out: Minimal Inhibitory Test Conens. (MIC)
# Procedure: as §1, §2, §3
# [1] = General pharmacology screen in mice; conditions: mouse, in vivo, po; for TD50: doses given in mg./kg
# Procedure: 17- to 24-hour fasted female white mice, 16-20 g. each, or rats, 70-90 g. each were dosed orally with test drug (or standard) at 0, 4, 12, 36, 108 or 324 mg./kg.
# Ataxia--The mouse or rat was placed upright on the bench top facing away from the observer. Motor incoordination manifested by abnormal gait or lack of precision during purposive movements constituted ataxia.
# Vertical Bar--The mouse or rat was swung by the tail with head pointing down to a 0.5" diameter (1" diameter for rats), 30.5 cm long vertical rod covered with adhesive tape. Inability to grip the rod with the front paws, sliding or failure to move after being prodded constituted vertical bar loss.
# Body Temperature--The rectal temperatures of the mice and rats were taken using a KC-1 thermocouple probe.
# Excitement and Irritability--Increased spontaneous motor activity, running and jumping prior to handling were recorded as excitement. Upon handling, jumping, jerking, biting and squeaking were recorded as irritability.
# Anorexia--At the end of the 0.5 hour testing period, each mouse was transferred to an individual, clear, Lucite® compartment (13.3 cm×12.7 cm×12.7 cm) with a 0.64 cm×0.64 cm wire mesh floor. Inside each compartment there was a section of a black Lucite® bar [13 cm×1.2 cm×1.2 cm) with ten spot depressions (0.8 cm diameter) each containing 0.05 ml. of 50% sweetened condensed milk. 30 Minutes later the number of milk spots consumed was counted. 5 Mice per drug dose can drink a maximum of 50 spots (2.5 ml. of milk). 15 or fewer spots consumed by 5 mice constituted anorexia.
# [2] = General pharmacology screen in rats; conditions: in vivo, rat, doses given in mg./kg; for TD50: po
smiles,measurement,setting,value
"CCn1cc(C(=O)O)c(=O)c2cc3c(cc21)OCO3 [Oxolinic Acid, oxolinic acid]",MIC,Aero. cloacae,< 0.08 µg/mL
same,MIC,Bac. subtilis,< 0.08 µg/mL
same,MIC,E. coli; E. coli (06-2B),2 µg/mL
same,MIC,E. coli; E. coli (06-2F),0.4 µg/mL
same,MIC,E. coli; E. coli (06-2L),10 µg/mL
same,MIC,E. coli; E. coli (06-2M),< 0.08 µg/mL
same,MIC,E. coli; E. coli (06C),2 µg/mL
same,MIC,E. coli; E. coli (06I),10 µg/mL
same,MIC,E. coli; E. coli (06J),0.4 µg/mL
same,MIC,E. coli; E. coli (06K),0.4 µg/mL
same,MIC,E. coli; E. coli (06L),0.4 µg/mL
same,MIC,E. coli; E. coli (06M),0.4 µg/mL
same,MIC,E. coli; E. coli (06S),2 µg/mL
same,MIC,E. coli; E. coli (06V),0.4 µg/mL
same,MIC,E. coli; E. coli (06X),2 µg/mL
same,MIC,E. coli; E.coli (06-2D),2 µg/mL
same,MIC,Kleb. aerobacter,> 10 µg/mL
same,MIC,Proteus sp.,< 0.08 µg/mL
same,MIC,Proteus vulgaris,2 µg/mL
same,MIC,Sal. choleraesuis,< 0.08 µg/mL
same,MIC,Sal. gallinarum; Sal. gallinarum (04C),2 µg/mL
same,MIC,Sal. gallinarum; Sal. gallinarum (04D),0.4 µg/mL
same,MIC,Sal. typhimurium; Sal. typhimurium (03A),0.4 µg/mL
same,MIC,Sal. typhimurium; Sal. typhimurium (03C),0.4 µg/mL
same,MIC,Sal. typhimurium; Sal. typhimurium (03K),< 0.08 µg/mL
same,Minimal Inhibitory Test Conens. (MIC),Sal. typhi; Sal. typhi (02B),0.4 µg/mL
same,MIC,"Sal. typhi; Salmonella enterica, Sal. typhi (02A), read-out: Minimal Inhibitory Test Conens. (MIC)",0.4 µg/mL
same,MIC,Ser. marcescens,0.4 µg/mL
same,MIC,Shiq. dysenteriae,0.4 µg/mL
same,MIC,Staph. aureus,0.4 µg/mL
same,MIC,Strep. pyogenes,< 0.08 µg/mL
same,LD50 at 24 h,[1],> 450 mg/kg
same,TD50,"[1]; ED50 Anoroxia, 15 or fewer milk spots consumed by 5 mice",21 mg/kg
same,TD50,[1]; ED50 Ataxia,3.2 mg/kg
same,TD50,[1]; ED50 Excitation,8 mg/kg
same,TD50,"[1]; ED50 Hypertherm., rectal temperature",> 450 mg/kg
same,TD50,"[1]; ED50 Hypotherm., rectal temperature",> 450 mg/kg
same,TD50,[1]; ED50 Irritability,36 mg/kg
same,TD50,"[1]; ED50 Vert. Bar, vertical bar loss",4.5 mg/kg
same,LD50 at 24 h,"[2]; oral, read-out: ED50 24-Hour Mort.",> 324 mg/kg
same,TD50,[2]; read-out: ED50 Ataxia,97 mg/kg
same,TD50,[2]; read-out: ED50 Excitation,62 mg/kg
same,TD50,[2]; read-out: ED50 Irritability,> 324 mg/kg
same,TD50,"[2]; rectal temperature, read-out: ED50 Hypertherm.",121 mg/kg
same,TD50,"[2]; rectal temperature, read-out: ED50 Hypotherm.",> 324 mg/kg
same,TD50,"[2]; vertical bar loss, read-out: ED50 Vert. Bar",187 mg/kg
